Reference: US20090232735A1, “USE OF FRUCTOSE-BASED THERAPIES FOR THE TREATMENT OF CANCER” (CEDARS-SINAI MEDICAL CENTER, priority 2005, published 2009)
Entries after “also recorded” stand apart in the source; their conditions may differ.

Tested on: PANC-1 pancreatic cancer cells
Test: PANC-1 pancreatic cancer cell proliferation (MTS assay)
Type: cell-based, human
Settings: oxythiamine 0.5 mM, 72 h, MTS
Method: FIG. 13 depicts higher proliferation rates in pancreatic cancer cells in fructose (5.5 mM) than glucose (5.5 mM) containing medium in accordance with an embodiment of the present invention. PANC-1 cells were pre-incubated in 2 mM glucose, after which they were plated in 5.5 mM fructose or glucose for times between 12-72 h, after which proliferative rates were measured using an MTS assay. Proliferative rates are expressed as the percentage difference between cells grown in 5.5 mM fructose versus 5.5 mM glucose. p<0.01 for times>48 h.
FIG. 14 depicts proliferation rates of pancreatic cells in different fructose or glucose concentrations in accordance with an embodiment of the present invention. PANC-1 cells were plated in a range of fructose or glucose concentrations (5-25 mM) for 72 h, after which proliferative rates were measured using an MTS assay. *, p<0.05 for concentrations between 5-25 mM fructose versus glucose.
FIG. 17 depicts cell proliferation regardless of co-existent glucose concentration in accordance with an embodiment of the present invention. PANC-1 cells were pre-incubated in 2 mM glucose prior to treatment with a range of concentrations (0-15 mM) mixed with a range of fructose concentrations (0-15 mM) for 72 h. PANC-1 cell proliferative rates were then measured using the MTS assay (absorbance in arbitrary units).
FIG. 35 depicts inhibition of pancreatic cancer PANC-1 cell proliferation by incubation with the transketolase inhibitor, oxythiamine (0.5-2 mM) for 72 h in accordance with an embodiment of the present invention. Proliferative rates were measured using the MTS proliferation assay.
Standard media for maintenance cancer cell line culture, including pancreatic cancer cells such as PANC-1 cells contain either low—(5-7 mM), or high—(12-25 mM) glucose concentrations. Clearly, apart from the setting of hyperglycemia, as in patients with diabetes, the glucose concentrations in which pancreatic cancer cells are maintained in vitro are much higher than normal physiological conditions, which range between 2-5 mM glucose. […] Therefore, the inventors first pre-treated the pancreatic cancer cells overnight in standard DMEM medium containing low physiological glucose concentrations (2 mM glucose), and standard 10% fetal bovine serum. The pancreatic cancer cells were then incubated for times between 12, and 96 hours in standard DMEM medium containing 10% fetal bovine serum, and 5.5 mM glucose or 5.5 mM fructose. Proliferative rates were then measured in replicate (minimum of 6) aliquot wells of the pancreatic cancer cells, and the change (expressed as percent increase) in proliferative rates compared between cells grown in glucose, or fructose containing medium.
This first result intrigued the inventors, but given there is little documentation regarding physiological fructose concentrations, the inventors first considered that the “apparent” pro-proliferative effects of fructose were simply a consequence of the highly stylized in vitro experimental conditions, and that if the pancreatic cancer cells were cultured in higher glucose concentrations, this would result in similar proliferative rates to those the inventors observed following culture in 5.5 mM fructose. Therefore, in the next experiments, the inventors compared proliferative rates of the PANC-1 pancreatic cancer cells following culture for 72 h in a range of fructose, and glucose concentrations (2-25 mM). This timepoint was chosen as the inventors had seen maximal pancreatic cancer cell proliferation in 5.5 mM fructose at 72 h. […] While not wishing to be bound by any particular theory, the inventors believe that this latter finding may be because the PANC-1 cells are proliferating at close to maximal capacity by 72 h, once they are exposed to comparatively low fructose concentrations (5 mM). MTS assay was employed to measure pancreatic cancer cell proliferative rates, which utilizes mitochondrial oxidation to quantify cell proliferation. […]

SMILES: Cc1ncc(C[n+]2csc(CCO)c2C)c(=O)[nH]1 [oxythiamine, reference compound]
- fructose-mediated increase in pancreatic cancer cell proliferation (5.5 mM fructose): virtually abolished; also recorded: almost completely abrogate
- glucose-induced and fructose-induced PANC-1 proliferation: inhibited
